Test system: whitetail deer
Test: Free-choice consumption of repellent-adulterated salt by salt-deprived deer
Assay type: in vivo
Details: mean per 48-hour provision, dry matter basis
Protocol: The products evaluated were three classes of commercially available, non-lethal repellents. Products that repel deer based on taste modification, chemical irritation and fear were evaluated. One gram of water was used to blend the dry repellents with loose salt in a V-mixer (tumble mixer). Liquid repellents were added directly to salt and blended using the V-mixer. After blending, the adulterated salt was weighed into labeled, channel-lock bags, sealed, and stored for eventual delivery to the test farm.
Testing was carried out at the farm of a whitetail deer farmer located in Indiana. The testing was carried out by both the farmer and a veterinarian. Approximately twelve deer that ranged in age from 1.5 to 3 years were used in the study. The deer appeared to be healthy at the beginning of the study and maintained satisfactory health during the completion of the study. Signs consistent with clinical disease were not observed, and medical treatments were not administered to any of the deer. The deer were divided into two groups and housed in two separate grass paddocks. Each paddock housed approximately six deer. The size of the paddocks was about 250 ft.×100 ft.
The deer used in the study were fed a diet that was devoid of supplemental salt. Feed was provided in plastic feeders on the ground and inside a wooden, three-sided feeding station that was constructed by the farm owner. Feeding stations were present in both paddocks. Salt was provided free-choice in shallow, black rubber pans, and the pans were housed in a raised, wooden trough that was mounted on the wall of the feeding station. Water was provided to the deer in round plastic containers located within the paddocks. Water and feed were provided to the deer by the farm owner.
Prior to initiation of the study, the salt-free diet and free-choice, unadulterated salt were provided to the deer for a period of one-week to permit acclimation to the feeding regimen. After initiation of the study, access to salt was restricted in an attempt to impose a state of salt deprivation in the deer. Free-choice, unadulterated salt was removed, and the deer were fed the diet deficient in salt for a period of 48 hours to induce salt deprivation. After 48 hours, free-choice salt containing the different repellents was provided. After 48 hours, salt containing the repellents was removed, and another 48-hour period of salt deprivation was imposed followed by provision of adulterated salt for another 48-hour period. The regimen of 48 hours of adulterated salt provision, 48 hours of salt deprivation was used throughout the study and constituted an experimental replication. A total of eight replications were completed for the chemical irritation and fear class of repellents. A total of seven replications were completed for the taste class of repellents.
The pans containing adulterated salt were randomly arranged in the raised, wooden trough on each replication to prevent the deer from becoming habituated to the placement of repellents in a particular position in the trough. A one-week period of access to unadulterated salt was permitted after the final replication of the respective classes of repellents was completed. The experimental period for each class of repellents varied between 28 and 32 days.
Absolute dry matter of unadulterated salt was determined by drying 1 gram samples in a 212° F. (100° C.) oven for a period of 24 hours. Dry matter of unadulterated salt was determined to be 99.8%. After collection of adulterated and unadulterated salt from the feeding stations, the salt was transferred to aluminum pans and dried in a 131° F. (55° C.) oven for 48 hours to determine physiologic dry matter.
Salt consumption was determined by calculating the difference between salt provided and salt collected after 48 hours. The data was converted to, and expressed on, a dry matter basis.
Consumption data for the two paddocks was merged for analysis. […]

[1] = taste repellents in free salt at Table 1 inclusion rates, seven replications

Row | Molecule | Consumed [1] | other results
1 | [Cl-].[Li+] [Lithium Chloride, Lithium chloride] | – | Consumed (chemical irritation repellent, 0.38% by weight in salt, eight replications): 7.06 g
2 | CC[N+](CC)(CC(=O)Nc1c(C)cccc1C)Cc1ccccc1 [Bitrex, Denatonium benzoate] | 8.29 g | –
3 | COc1cc(CNC(=O)CCCC/C=C/C(C)C)ccc1O [Capsaicin] | – | Consumed (chemical irritation repellent, 0.007% by weight in salt, eight replications): 8.81 g; Consumed (chemical irritation repellent, 0.07% by weight in salt, eight replications): 9.38 g
4 | Rennet casein | 10.43 g | –
5 | Acid casein | 8.21 g | –
6 | Sodium caseinate | 7.62 g | –

Reference: patent US20120121680A1, “ANIMAL REPELLING DEICER” (NORTH AMERICAN SALT COMPANY, priority 2010, published 2012)
